One compound from patent publication US6632832B1 (Dabur Research Foundation, priority 2002, dated 2003) can be followed below.

Converted amounts (≈) assume the structure as drawn. Where two headings read alike, the source gives them in different places.

One data set is described as follows: Acute toxicity in mice. The class given is in vivo. The conditions noted are these: Swiss albino mice weighing 25 grams, observed for two weeks. How it is done:
Acute toxicity studies were performed using two preferred routes of administration: intravenous and oral administration.

In the next data set the test system is B16F10 (melanoma). Description: MTT cytotoxicity assay, 72 hours. The class given is cell-based, human. The following applies: 72 h MTT. Here is the method:
(§1) After 72 hours, the assay was terminated and percent cyotoxicities calculated.

The subject of the next data set is HBL100 (breast). Briefly: MTT cytotoxicity assay, 72 hours. The conditions noted are these: 72 h MTT. The format is cell-based, human. How it is done:
as §1

The test system of data set [1] is human pancreatic cancer cells (MiaPaCa2). Description: Cytotoxicity abrogation assay with intracellular blocking of PKC by Bisindolylmaleimide. The format is cell-based. How it is done: Briefly, 10000 human pancreatic cancer cells (MiaPaCa2) were seeded per well in a 96-well culture plate in DMEM containing 5% FCS. All experiments were carried out in triplicate at 37° C. in CO2 incubator. The plates were incubated overnight to allow complete reattachment of the cells. Subsequently, the medium was replaced with DMEM. The cells were incubated with varying concentrations of Bisindolylmaleimide, the specific inhibitor of PKC for a period of three hours. Bisindolylmaleimide was dissolved in 1% DMSO The control cells were treated with 1% DMSO. The cells were washed with PBS, and the medium was changed to fresh DMEM.

Data set [2] has as its system B16F10 melanoma tumor xenografts. Description: B16F10 melanoma xenograft model in nude mice. The class given is in vivo, Balb/c athymic mice. The following applies: for tumor inhibition based on tumor volumes compared with untreated controls: oral gavage once a day, Day 19. How it is done: Melanoma tumor xenografts were initiated in Balb/c athymic mice by subcutaneous inoculation of a single cell suspension of B16F10 cells (10×10^6 cells/100 μL). The tumor-bearing mice were divided into three groups of 4 animals each. […] The third group served as control. […] The anti-tumor activity was monitored by measuring the tumors using a vernier caliper every fourth day and calculating volumes using the formula 0.4×W^2×L(W=smaller dia, L=larger dia,).

On to `COc1ccccc1OCCNCC(O)COc1cccc2[nH]c3ccccc3c12` (racemic) [Carvedilol, (±)-1-(carbazol-4-yloxy)-3-[(2-(o-methoxyphenoxy)ethyl]amino]-2-propanol], for which the safe dose amounted to 0.15 mg in the data set “Acute toxicity in mice” (i.v.) and 3 mg in the data set “Acute toxicity in mice” (oral). For the same compound, the ED50 is 10.5 ± 1.7 µg/mL (≈ 25.8 µM) in the data set on B16F10 (melanoma) (B16.F10 (Melanoma), Table 2); 10.5 ± 1.7 µg/mL (≈ 25.8 µM) with B16F10 (melanoma) (B16F10 (melanoma)); 29.0 ± 4.2 µg/mL (≈ 71.3 µM) in the data set on HBL100 (breast) (HBL100 (Breast), Table 2); 29.0 ± 4.2 µg/mL (≈ 71.3 µM) in the data set on HBL100 (breast) (HBL100 (breast)). The cytotoxicity at 20 µg/mL is 50% in data set [1] (MIA PaCa-2, 48 h, read-out: % Cytotoxicity of Carvedilol (20 ug/ml), MiaPaCa2, 48 hours, Bisindolemaleimide Nil); 22% in data set [1] (MIA PaCa-2, read-out: % Cytotoxicity of Carvedilol (20 ug/ml), MiaPaCa2, 48 hours, preincubated with Bisindolemaleimide 1.0 uM); 20% in data set [1] (MIA PaCa-2, read-out: % Cytotoxicity of Carvedilol (20 ug/ml), MiaPaCa2, 48 hours, preincubated with Bisindolemaleimide 2.5 uM); 20% in data set [1] (MIA PaCa-2, read-out: % Cytotoxicity of Carvedilol (20 ug/ml), MiaPaCa2, 48 hours, preincubated with Bisindolemaleimide 5.0 uM). In addition, the entries for the “tumor inhibition based on tumor volumes compared with untreated controls” value in data set [2] (300 ug/day) and in data set [2] (600 ug/day) were 37.3% and 59.1%, respectively. Moreover, in data set [2] (both doses (300 and 600 ug/day oral)), the “pattern of tumor growth (FIG. 6)” value was “delayed tumor growth and tumor regression”.
